Here are results for one compound from patent publication US20200375919A1, “BONE GRAFT MATERIAL WITH 4-HEXYLRESORCINOL THAT AFFECTS BONE FORMATION” (MANTIZ LOGITECH CO., LTD., priority 2019, published 2020).

Molecules are shown by their SMILES.

One assay relates to human primary cells. In words: MTS measuring of cytotoxicity and cell viability. The format is cell-based. To be noted: FIG. 1. The source says:
MTS Measuring Method of Cytotoxicity and Cell Viability
Mitochondrial NADH-dehydrogenase forms formazan having a color by reducing a tetrazolium salt such as MTS. Therefore, as the number of cells which express dehydrogenase, i.e., living cells is proportional to formation of formazan, the living cells can be quantified.
After seeding human primary cells, adhering the seeded-human primary cells to a cell plate, and treating the seeded-human primary cells adhered to the cell plate with an MTS Cell Proliferation Assay Kit (ab197010, UK, abcam) every 24 hours and 48 hours, resulting materials were confirmed by using a wavelength of 490 nm.

Assay [1] has as its system osteoblast-like cells. In words: Alkaline phosphatase activity (early-stage osteoblastic differentiation). The format is cell-based, human. To be noted: 0.0194% (=10^-4M) compared with 3% and control; seventh day; FIG. 2. The method, then:
Method of Measuring Cell Culture and Alkaline Phosphatase Activities
In vitro tests were performed by using osteoblast-like cells through a human primary cell culture. A cell survival environment was progressed by supplementing DMEM (Dulbecco Modified Eagle's Medium)-high glucose (PAA Laboratories, Pasching, Austria) and 20% fetal bovine serum (PAA, Canada) and comprising 1% penicillin/streptomycin (100×), and media were exchanged every other day. Resulting materials were confirmed on the seventh day of differentiation experiments by using alkaline phosphatase (Sigma, St. Louis, Mo., USA).

Assay [2] deals with osteoblast-like cells. The assay can be described thus: Alizarin Red S staining (late osteoblast differentiation, calcium accumulation). The class given is cell-based, human. To be noted: 0.0194% (=10^-4M) compared with 3% and control; FIG. 3. The procedure:
Method of Measuring Bone Differentiation Degrees by Dyeing Calcium Accumulation of Bone-Differentiated Cells (Alizarin Red S Staining)
In vitro tests were performed by using osteoblast-like cells through a human primary cell culture. A cell survival environment was progressed by supplementing DMEM (Dulbecco Modified Eagle's Medium)-high glucose (PAA Laboratories, Pasching, Austria) and 20% fetal bovine serum (PAA, Canada) and comprising 1% penicillin/streptomycin (100×), and media were exchanged every other day. Resulting materials were confirmed on the seventh day of differentiation experiments.

A further assay concerns ALP, Runx2, Osx, Ocn. The assay can be described thus: mRNA expression of osteoblast differentiation markers. The format is cell-based. To be noted: 0.0194% (=10^-4M) compared with 3% or control; FIGS. 4A to 4D.
Another assay relates to ALP and Runx2. In words: Western blot protein level. The class given is cell-based. To be noted: 0.0194% compared with 3% or control; FIG. 5. A general note: Immunoblotting shows a protein as a band on a membrane.
The test system of a further assay is osteoclasts. The assay can be described thus: Differentiation of osteoclasts (TRAP staining). The class given is cell-based, human. To be noted: FIGS. 6A and 6B. The procedure:
Method of Measuring Differentiation Abilities of Osteoclasts (TRAP Staining)
In vitro tests were performed by using osteoclasts through a human bone marrow derived macrophages culture. A cell survival environment was progressed by supplementing DMEM (Dulbecco Modified Eagle's Medium)-high glucose (PAA Laboratories, Pasching, Austria) and 20% fetal bovine serum (PAA, Canada) and comprising 1% penicillin/streptomycin (100×), and media were exchanged once a day. Resulting materials were confirmed on the fifth day of differentiation experiments through TRAP staining.

In the case of `CCCCCCc1ccc(O)cc1O` [4-hexylresorcinol], the “cell proliferation, low versus high concentration” value with human primary cells (0.0194% compared with 3%) was “cell proliferation is more active”. Moreover, the “cell viabilities versus control” value with human primary cells (4-hexylresorcinol concentrations of 3% and 0.0194% (=10^-4M)) is recorded as “higher than a control”. The ALP activity entry with osteoblast-like cells [1] is given as “high ALP activity”. The “calcification (Alizarin Red S staining)” value in the assay on osteoblast-like cells [2] is “high calcification”. The “mRNA expression level of ALP, Runx2, Osx, Ocn” value with ALP, Runx2, Osx, Ocn is “larger expression level”. For the same compound, the “ALP and Runx2 protein expression levels (western blot)” value in the assay on ALP and Runx2 is reported as “higher”. The “effect on differentiation of osteoclasts, low versus high concentration” value in the assay with osteoclasts (0.0194% compared with 3%) was “more excellent”. Besides, the differentiation of osteoclasts entry with osteoclasts (treating 4-hexylresorcinol, fifth day) is “inhibited”.
